According to PMC3857843, “Multiple Transport-Active Binding Sites Are Available for a Single Substrate on Human P-Glycoprotein (ABCB1)” (PLoS ONE, 2013):

Tests used:
[1] = biological target: F728C mutant Pgp (human MDR1) (Homo sapiens, UniProt P08183, C1074A/C1125A/C1227A/C137A/C431A/C717A/C956A/F728C); assay: in vitro; details: pH 6.8
Protocol: (§1) Then, samples were photocrosslinked with IAAP at 4°C as described in the Materials and Methods section. Mean values from at least three independent experiments are plotted and error bars depict SD.
(§2) High-Five insect cells (Invitrogen, Carlsbad, CA) were infected with recombinant baculovirus carrying the human MDR1 cDNA cysless WT and various mutant Pgps, with a His6-tag at the C-terminus as described previously. Crude membranes were prepared as described previously
(§3) The crude membranes of High-Five insect cells containing 60-80 µg protein per 100 µL in 50 mM MES-Tris buffer (pH 6.8), were incubated for 10 minutes at 37°C in the absence (control) and presence of compound(s) at indicated concentration.

F978C mutant Pgp [2] = biological target: T1, F978C mutant Pgp (Homo sapiens, UniProt P08183, C1074A/C1125A/C1227A/C137A/C431A/C717A/C956A/F978C); assay: biochemical
Protocol: as §1, §2, §3

[3] = biological target: F978C mutant Pgp (human MDR1) (Homo sapiens, UniProt P08183, C1074A/C1125A/C1227A/C137A/C431A/C717A/C956A/F978C); assay: in vitro; details: human, pH 6.8
Protocol: as §1, §2, §3

[4] = biological target: Q725C mutant Pgp (human MDR1) (Homo sapiens, UniProt P08183, C1074A/C1125A/C1227A/C137A/C431A/C717A/C956A/Q725C); assay: in vitro; details: pH 6.8
Protocol: as §1, §2, §3

[5] = biological target: Q725C/V982C mutant Pgp (human MDR1) (Homo sapiens, UniProt P08183, C1074A/C1125A/C1227A/C137A/C431A/C717A/C956A/Q725C/V982C); assay: in vitro; details: pH 6.8
Protocol: as §1, §2, §3

V982C mutant Pgp [6] = biological target: T2, V982C mutant Pgp (Homo sapiens, UniProt P08183, C1074A/C1125A/C1227A/C137A/C431A/C717A/C956A/V982C); assay: biochemical
Protocol: as §1, §2, §3

[7] = biological target: V982C mutant Pgp (human MDR1) (Homo sapiens, UniProt P08183, C1074A/C1125A/C1227A/C137A/C431A/C717A/C956A/V982C); assay: in vitro; details: human, pH 6.8
Protocol: as §1, §2, §3

[8] = biological target: T3, Y307C/Q725C/V982C mutant Pgp (Homo sapiens, UniProt P08183, C1074A/C1125A/C1227A/C137A/C431A/C717A/C956A/Q725C/V982C/Y307C); assay: in vitro
Protocol: as §1, §2, §3

[9] = biological target: Y307C/Q725C/V982C mutant Pgp (human MDR1) (Homo sapiens, UniProt P08183, C1074A/C1125A/C1227A/C137A/C431A/C717A/C956A/Q725C/V982C/Y307C); assay: in vitro; details: human, pH 6.8
Protocol: as §1, §2, §3

cysless WT Pgp [10] = biological target: T4, cysless WT Pgp (Homo sapiens, UniProt P08183, C1074A/C1125A/C1227A/C137A/C431A/C717A/C956A); assay: Inhibition of IAAP photo-labeling of Pgp in crude membranes
Protocol: as §1, §2, §3

[11] = biological target: cysless WT Pgp (human MDR1) (Homo sapiens, UniProt P08183, C1074A/C1125A/C1227A/C137A/C431A/C717A/C956A); assay: in vitro; details: human, pH 6.8
Protocol: as §1, §2, §3

all mutant Pgps = assay: Vanadate-sensitive ATP hydrolysis of Pgp in crude membranes; type: biochemical, human; details: all mutant Pgps; inhibition measured in presence of verapamil 5 µM
Protocol: Crude membranes were prepared as described previously

F343C/V982C mutant Pgp = F343C/V982C mutant Pgp (Homo sapiens, UniProt P08183, C1074A/C1125A/C1227A/C137A/C431A/C717A/C956A/F343C/V982C); assay: as above; details: Verapamil 50 µM, QZ59-SSS 1 µM, Valinomycin 10 µM, FSBA 1 mM
Protocol: (§4) Vanadate-sensitive Pgp-mediated ATP hydrolysis was measured as described in Materials and Methods. […] At least two independent experiments were carried out for each mutant with indicated compounds. Additional information including standard deviations, fold-stimulation or % inhibition, and number of experiments is given in the section (Tables S2 and S3).
as §2
(§5) Crude membranes (10-25 µg protein/100 µ L) from High Five insect cells expressing cysless WT or mutant Pgp were incubated in the presence and absence of sodium orthovanadate (0.3 mM), in a buffer containing 50 mM MES-Tris pH 6.8, 50 mM KCl, 5 mM NaN3, 1 mM EGTA, 1 mM ouabain, 2 mM DTT, and 10 mM MgCl2. […] The reaction was initiated by addition of 5 mM ATP and continued for 20 min at 37°C. […] The reaction was stopped by addition of 100 µ L of 5% SDS and the amount of inorganic phosphate generated was quantified with a colorimetric reaction, as previously described.

F728C mutant Pgp = F728C mutant Pgp (Homo sapiens, UniProt P08183, C1074A/C1125A/C1227A/C137A/C431A/C717A/C956A/F728C); assay: as above; details: Verapamil 50 µM, QZ59-SSS 1 µM, Valinomycin 10 µM, FSBA 1 mM
Protocol: as §4, §2, §5

F728C/V982C mutant Pgp = F728C/V982C mutant Pgp (Homo sapiens, UniProt P08183, C1074A/C1125A/C1227A/C137A/C431A/C717A/C956A/F728C/V982C); assay: as above; details: Verapamil 50 µM, QZ59-SSS 1 µM, Valinomycin 10 µM, FSBA 1 mM
Protocol: as §4, §2, §5

F978C mutant Pgp [12] = biological target: T1, F978C mutant Pgp; assay: as above; details: Verapamil 50 µM, QZ59-SSS 1 µM, Valinomycin 10 µM
Protocol: as §4, §2, §5

Q725A mutant Pgp = Q725A mutant Pgp (Homo sapiens, UniProt P08183, C1074A/C1125A/C1227A/C137A/C431A/C717A/C956A/Q725A); assay: as above; details: Verapamil 50 µM, QZ59-SSS 1 µM, Valinomycin 10 µM
Protocol: as §4, §2, §5

Q725C mutant Pgp = Q725C mutant Pgp (Homo sapiens, UniProt P08183, C1074A/C1125A/C1227A/C137A/C431A/C717A/C956A/Q725C); assay: as above; details: Verapamil 50 µM, QZ59-SSS 1 µM, Valinomycin 10 µM, FSBA 1 mM
Protocol: as §4, §2, §5

Q725C/V982C mutant Pgp = Q725C/V982C mutant Pgp (Homo sapiens, UniProt P08183, C1074A/C1125A/C1227A/C137A/C431A/C717A/C956A/Q725C/V982C); assay: as above; details: Verapamil 50 µM, QZ59-SSS 1 µM, Valinomycin 10 µM, FSBA 1 mM
Protocol: as §4, §2, §5

V982C mutant Pgp [13] = biological target: T2, V982C mutant Pgp; assay: as above; details: Verapamil 50 µM, QZ59-SSS 1 µM, Valinomycin 10 µM, FSBA 1 mM
Protocol: as §4, §2, §5

Y307C mutant Pgp = Y307C mutant Pgp (Homo sapiens, UniProt P08183, C1074A/C1125A/C1227A/C137A/C431A/C717A/C956A/Y307C); assay: as above; details: Verapamil 50 µM, QZ59-SSS 1 µM, Valinomycin 10 µM, FSBA 1 mM
Protocol: as §4, §2, §5

[14] = biological target: T3, Y307C/Q725C/V982C mutant Pgp; assay: as above; details: Verapamil 50 µM, QZ59-SSS 1 µM, Valinomycin 10 µM, FSBA 1 mM
Protocol: as §4, §2, §5

Y307C/V982C mutant Pgp = Y307C/V982C mutant Pgp (Homo sapiens, UniProt P08183, C1074A/C1125A/C1227A/C137A/C431A/C717A/C956A/V982C/Y307C); assay: as above; details: Verapamil 50 µM, QZ59-SSS 1 µM, Valinomycin 10 µM, FSBA 1 mM
Protocol: as §4, §2, §5

cysless WT Pgp [15] = biological target: T4, cysless WT Pgp; assay: as above; details: Verapamil 50 µM, QZ59-SSS 1 µM, Valinomycin 10 µM, FSBA 1 mM
Protocol: as §4, §2, §5

COc1cc2c(cc1OC)CN(CCc1ccc(NC(=O)c3cc(OC)c(OC)cc3NC(=O)c3cnc4ccccc4c3)cc1)CC2 [Tariquidar, tariquidar]
inhibition at 10 min [1]: 40%
IC50 (F978C mutant Pgp [2]): 3600 nM
inhibition at 10 min [3]: 73%
inhibition at 10 min [4]: 37%
inhibition at 10 min [5]: 22%
IC50 (V982C mutant Pgp [6]): 700 nM
inhibition at 10 min [7]: 64%
Ability to inhibit IAAP photo-labeling [8]: lose almost completely this ability
inhibition at 10 min [9]: 23%
IC50 (cysless WT Pgp [10]): 140 ± 30 nM
inhibition at 10 min [11]: 97 ± 4%
Modulation of ATP hydrolysis (all mutant Pgps): found to be inhibited

CC(C)[C@@H]1NC(=O)[C@H](C)OC(=O)[C@@H](C(C)C)NC(=O)[C@@H](C(C)C)OC(=O)[C@H](C(C)C)NC(=O)[C@H](C)OC(=O)[C@@H](C(C)C)NC(=O)[C@@H](C(C)C)OC(=O)[C@H](C(C)C)NC(=O)[C@H](C)OC(=O)[C@@H](C(C)C)NC(=O)[C@@H](C(C)C)OC1=O [valinomycin]
Ability to inhibit IAAP photo-labeling ([8]; Y307C/Q725C/V982C): lose almost completely this ability
IC50 (cysless WT Pgp [10]): 600 nM
inhibition at 10 min [11]: 82%
ATP hydrolysis, Average (F343C/V982C mutant Pgp): 56 nmoles Pi/min/mg protein
ATP hydrolysis, Fold-stimulation (F343C/V982C mutant Pgp; relative to basal): 3.1
ATP hydrolysis, Average (F728C mutant Pgp): 23 nmoles Pi/min/mg protein
ATP hydrolysis, Fold-stimulation (F728C mutant Pgp; relative to basal): 3.9
ATP hydrolysis, Average (F728C/V982C mutant Pgp): 10 nmoles Pi/min/mg protein
ATP hydrolysis, Fold-stimulation (F728C/V982C mutant Pgp; relative to basal): 2.5
ATP hydrolysis, Average (F978C mutant Pgp [12]): 18 nmoles Pi/min/mg protein
ATP hydrolysis, Fold-stimulation (F978C mutant Pgp [12]; relative to basal): 1.5
ATP hydrolysis, Average (Q725A mutant Pgp): 11 nmoles Pi/min/mg protein
ATP hydrolysis, Fold-stimulation (Q725A mutant Pgp; relative to basal): 2.1
ATP hydrolysis, Average (Q725C mutant Pgp): 12 nmoles Pi/min/mg protein
ATP hydrolysis, Fold-stimulation (Q725C mutant Pgp; relative to basal): 2.5
ATP hydrolysis, Average (Q725C/V982C mutant Pgp): 5 nmoles Pi/min/mg protein
ATP hydrolysis, Average (V982C mutant Pgp [13]): 13 nmoles Pi/min/mg protein
ATP hydrolysis, Average (Y307C mutant Pgp): 17 nmoles Pi/min/mg protein
ATP hydrolysis, Fold-stimulation (Y307C mutant Pgp; relative to basal): 2.2
ATP hydrolysis, Average [14]: 14 nmoles Pi/min/mg protein
ATP hydrolysis, Fold-stimulation ([14]; relative to basal): 2.8
ATP hydrolysis, Average (Y307C/V982C mutant Pgp): 33 nmoles Pi/min/mg protein
ATP hydrolysis, Fold-stimulation (Y307C/V982C mutant Pgp; relative to basal): 3.5
ATP hydrolysis, Average (cysless WT Pgp [15]): 40 nmoles Pi/min/mg protein
ATP hydrolysis, Fold-stimulation (cysless WT Pgp [15]; relative to basal): 1.9
